Measurements published in patent US20150246898A1, “METALLOENZYME INHIBITOR COMPOUNDS” (DOW AGROSCIENCES LLC, priority 2012, published 2015).
Values after ≈ are worked out from the molar mass of the structure shown.

What was measured:
[1] = test system: Puccinia recondita tritici = Puccinia triticina (PUCCRT); test: Fungicidal activity vs. leaf rust on wheat plants (1-day protectant spray); format: in vivo; conditions: wheat (variety Yuma) sprayed at 50 ppm, inoculated next day, disease severity evaluated 7-9 days later, read-out: Puccinia Rating (% Disease Control @ 50 ppm)
Source text: Each pot contained 3-8 seedlings. These plants were sprayed until wet with the formulated test compounds. The compounds were formulated at 50 ppm in 10 vol. % acetone plus 90 vol. % Triton X water (deionized water 99.99 wt %+0.01 wt % Triton X100), giving a “formulated test compound.” Formulated test compounds were applied to plants using a turn table sprayer fitted with two opposing air atomization nozzles which delivered approximately 1500 L/ha of spray volume. On the following day, the leaves were inoculated with an aqueous spore suspension of Puccinia recondita tritici and the plants were kept in high humidity overnight to permit spores to germinate and infect the leaf. The plants were then transferred to a greenhouse until disease developed on untreated control plants. Disease severity was evaluated 7-9 days later, depending on the speed of disease development. In each case of Table 3, the Puccinia rating scale is as follows: […]

[2] = test system: Septoria tritici (ATCC 26517); test: Minimum Inhibitory Concentration (MIC) vs. Septoria tritici, CLSI-based microdilution; format: cell-based; conditions: Zymoseptoria tritici, ATCC26517, 168 h; MIC = 50% reduction in growth of S. tritici, 7 days at 22 °C, RPMI/MOPS, 1% DMSO; read-out: Septoria Rating (MIC)
Protocol: Compounds of the present disclosure were assessed for their ability to inhibit the growth of a common strain of the fungal plant pathogen Septoria tritici (ATCC 26517) using a procedure based on a Clinical and Laboratory Standards Institute (CLSI) microdilution assay protocol for filamentous fungi. Stock solutions of the test compounds and standards were prepared in DMSO at 6400 μg/mL. Each stock solution was used to prepare a 2-fold dilution series ranging from 16 to 0.016 μg/mL (total of 11 compound concentrations) in RPMI-1640 (Roswell Park Memorial Institute) medium containing 3-(N-morpholino)propanesulfonic acid (MOPS) buffer and 2% DMSO. A 100 μL aliquot of the dilutions was added to columns 1 (16 μg/mL compound) through 11 (0.016 μg/mL compound) of a 96-well microtiter plate. This format was replicated in a second row of the microtiter plate. Thus, each microtiter plate could include 11 concentrations of four test or control compounds replicated twice. A 100 μL aliquot of RPMI-1640/MOPS/2% DMSO medium was added to column 12 (no compound control) of the microtiter plate. A fresh culture of S. tritici was used to prepare a solution of approximately 5×10^4 colony-forming units per milliliter (cfu/mL) in RPMI/MOPS medium without DMSO. A 100 μL aliquot of this solution was added to all 96 wells in the microtiter plate. […] In each case of Table 3 the Septoria rating scale is as follows: […]

| Structure (SMILES) | MIC [2] [µg/mL] | pest or weed control at 50 ppm [1] [%] |
| --- | --- | --- |
| OC(c1cncnc1)(c1ccc(F)cc1F)C(F)(F)c1ccc(-c2ccc(OC(F)(F)F)cc2)cn1 (racemic) [Example 3, 1-(2,4-difluorophenyl)-2,2-difluoro-1-(pyrimidin-5-yl)-2-(5-(4-(trifluoromethoxy)phenyl)pyridin-2-yl)ethanol] | 0.5 to 1.5 (≈ 0.982 to 2.94 µM) | < 40 |
| N#Cc1ccc(-c2ccc(C(F)(F)C(O)(c3cncnc3)c3ccc(F)cc3F)nc2)cc1 (racemic) [Example 4, 4-(6-(2-(2,4-difluorophenyl)-1,1-difluoro-2-hydroxy-2-(pyrimidin-5-yl)ethyl)pyridin-3-yl)benzonitrile] | > 4 |  |
| N#Cc1ccc(C#Cc2ccc(C(F)(F)C(O)(c3cncnc3)c3ccc(F)cc3F)nc2)cc1 (racemic) [Example 5, 4-((6-(2-(2,4-difluorophenyl)-1,1-difluoro-2-hydroxy-2-(pyrimidin-5-yl)ethyl)pyridin-3-yl)ethynyl)benzonitrile] | ≤ 0.5 | 80 to 100 |
| OC(c1cncnc1)(c1ccc(F)cc1F)C(F)(F)c1ccc(C#CCOCC(F)(F)F)cn1 (racemic) [Example 6, 1-(2,4-difluorophenyl)-2,2-difluoro-1-(pyrimidin-5-yl)-2-(5-(3-(2,2,2-trifluoroethoxy)prop-1-ynyl)pyridin-2-yl)ethanol] | > 4 |  |
| CNc1ccc(C#Cc2ccc(C(F)(F)C(O)(c3cncnc3)c3ccc(F)cc3F)nc2)cc1 (racemic) [Example 7, 1-(2,4-difluorophenyl)-2,2-difluoro-2-(5-((4-(methylamino)phenyl)ethynyl)pyridin-2-yl)-1-(pyrimidin-5-yl)ethanol] | ≤ 0.5 | < 40 |
| OCC#Cc1ccc(C(F)(F)C(O)(c2cncnc2)c2ccc(F)cc2F)nc1 (racemic) [Example 8, 3-(6-(2-(2,4-difluorophenyl)-1,1-difluoro-2-hydroxy-2-(pyrimidin-5-yl)ethyl)pyridin-3-yl)prop-2-yn-1-ol] | 0.5 to 1.5 (≈ 1.24 to 3.72 µM) | 80 to 100 |
| OC(c1cncnc1)(c1ccc(F)cc1F)C(F)(F)c1ccc(OCc2ccc(Cl)cc2F)cn1 (racemic) [Example 10] | ≤ 0.5 | 80 to 100 |
| N#Cc1ccc(C#Cc2ccc(C(F)(F)C(O)(c3cncnc3)c3ccc(F)cc3F)nc2)cc1F (racemic) [Example 11] | ≤ 0.5 | 80 to 100 |
| N#Cc1ccc(C#Cc2ccc(C(F)(F)C(O)(c3cncnc3)c3ccc(F)cc3F)nc2)c(F)c1 (racemic) [Example 12, 4-((6-(2-(2,4-Difluorophenyl)-1,1-difluoro-2-hydroxy-2-(pyrimidin-5-yl)ethyl)pyridin-3-yl)ethynyl)-3-fluorobenzonitrile] | ≤ 0.5 | 80 to 100 |
| OC(c1cncnc1)(c1ccc(F)cc1F)C(F)(F)c1ccc(C#Cc2ccc(Cl)cc2)cn1 (racemic) [Example 13] | ≤ 0.5 | 80 to 100 |
| OC(c1cncnc1)(c1ccc(F)cc1F)C(F)(F)c1ccc(C#Cc2ccc(OC(F)(F)F)cc2)cn1 (racemic) [Example 14] | ≤ 0.5 | 80 to 100 |
| COc1ccc(C#Cc2ccc(C(F)(F)C(O)(c3cncnc3)c3ccc(F)cc3F)nc2)cc1 (racemic) [Example 15] | ≤ 0.5 | 60 to 79 |
| N#Cc1ccc(C#Cc2ccc(C(F)(F)C(O)(c3cncnc3)c3ccc(F)cc3F)nc2)cn1 (racemic) [Example 17] | 0.5 to 1.5 (≈ 1.05 to 3.16 µM) |  |
| Oc1ccc(C#Cc2ccc(C(F)(F)C(O)(c3cncnc3)c3ccc(F)cc3F)nc2)cc1 (racemic) [Example 19, 4-((6-(2-(2,4-Difluorophenyl)-1,1-difluoro-2-hydroxy-2-(pyrimidin-5-yl)ethyl)pyridin-3-yl)ethynyl)phenol] | ≤ 0.5 |  |
| CSc1ccc(C#Cc2ccc(C(F)(F)C(O)(c3cncnc3)c3ccc(F)cc3F)nc2)cc1 (racemic) [Example 22] | 1.5 to 4 (≈ 3.03 to 8.07 µM) |  |
| O/N=C/c1ccc(C#Cc2ccc(C(F)(F)C(O)(c3cncnc3)c3ccc(F)cc3F)nc2)cc1 (racemic) [Example 23] | 1.5 to 4 (≈ 3.05 to 8.12 µM) |  |
| OC(c1cccnn1)(c1ccc(F)cc1F)C(F)(F)c1ccc(C#Cc2ccc(F)cc2)cn1 (racemic) [Example 24] | > 4 |  |
| OC(c1cnccn1)(c1ccc(F)cc1F)C(F)(F)c1ccc(C#Cc2ccc(F)cc2)cn1 (racemic) [Example 25] |  | < 40 |
| N#Cc1ccc(COc2ccc(C(F)(F)C(O)(c3cncnc3)c3ccc(F)cc3F)nc2)c(F)c1 (racemic) [Example 68] |  | 80 to 100 |
| OC(c1ccc(Cl)cc1)(c1cncnc1)C(F)(F)c1ccc(OCc2ccc(Cl)cc2)cn1 (stereo not drawn) [Example 69] |  | < 40 |

The next lines start with results.

| MIC [2] [µg/mL] | Structure (SMILES) | pest or weed control at 50 ppm [1] [%] |
| --- | --- | --- |
| > 4 | OC(c1c[nH]nn1)(c1ccc(F)cc1F)C(F)(F)c1ccc(C#Cc2ccc(F)cc2)cn1 (racemic) [Example 26] |  |
| 1.5 to 4 (≈ 3.18 to 8.47 µM) | OC(c1cncs1)(c1ccc(F)cc1F)C(F)(F)c1ccc(C#Cc2ccc(F)cc2)cn1 (racemic) [Example 28] |  |
| > 4 | OC(c1cnco1)(c1ccc(F)cc1F)C(F)(F)c1ccc(C#Cc2ccc(F)cc2)cn1 (racemic) [Example 29] |  |
| 1.5 to 4 (≈ 3.29 to 8.78 µM) | OC(c1cc[nH]n1)(c1ccc(F)cc1F)C(F)(F)c1ccc(C#Cc2ccc(F)cc2)cn1 (racemic) [Example 30] |  |
| 0.5 to 1.5 (≈ 1.05 to 3.14 µM) | O=Cc1ccc(C#Cc2ccc(C(F)(F)C(O)(c3cncnc3)c3ccc(F)cc3F)nc2)cc1 (racemic) [Example 31] |  |
| ≤ 0.5 | N#Cc1ccc(CCc2ccc(C(F)(F)C(O)(c3cncnc3)c3ccc(F)cc3F)nc2)cc1 (racemic) [Example 32] |  |
| ≤ 0.5 | CNc1ccc(CCc2ccc(C(F)(F)C(O)(c3cncnc3)c3ccc(F)cc3F)nc2)cc1 (racemic) [Example 33] |  |
| ≤ 0.5 | OC(c1cncnc1)(c1ccc(F)cc1F)C(F)(F)c1ccc(C#Cc2ccc(NCC(F)(F)F)cc2)cn1 (racemic) [Example 36] |  |
| > 4 | OC(c1cncnc1)(c1ccc(F)cc1F)C(F)(F)c1ccc(Oc2ccc(Cl)cc2)cn1 (racemic) [Example 40] |  |
| > 4 | N#Cc1ccc(C#Cc2ccc(C(F)(F)C(O)(c3ccc(F)cc3)c3cncnc3)nc2)cc1 (racemic) [Example 44] |  |
| 1.5 to 4 (≈ 3.71 to 9.89 µM) | CCCC(O)(c1cncnc1)C(F)(F)c1ccc(C#Cc2ccc(C#N)cc2)cn1 (racemic) [Example 45] |  |
| 1.5 to 4 (≈ 3.84 to 10.2 µM) | CCC(O)(c1cncnc1)C(F)(F)c1ccc(C#Cc2ccc(C#N)cc2)cn1 (racemic) [Example 46] |  |
| 0.5 to 1.5 (≈ 1.03 to 3.09 µM) | COc1ccc(COc2ccc(C(F)(F)C(O)(c3cncnc3)c3ccc(F)cc3F)nc2)cc1 (racemic) [Example 49] |  |
| 1.5 to 4 (≈ 3.43 to 9.14 µM) | CC(C)C(O)(c1cncnc1)C(F)(F)c1ccc(OCc2ccc(Cl)cc2F)cn1 (racemic) [Example 50] |  |
| 0.5 to 1.5 (≈ 1.19 to 3.57 µM) | CC(C)C(O)(c1cncnc1)C(F)(F)c1ccc(OCc2ccc(Cl)cc2)cn1 (racemic) [Example 53] |  |
| > 4 | OC(c1cncnc1)(c1ccc(F)cc1F)C(F)(F)c1ccc(OCc2ccc(C(F)F)cc2)cn1 (racemic) [Example 54] |  |
| 0.5 to 1.5 (≈ 1.04 to 3.12 µM) | N#Cc1ccc(COc2ccc(C(F)(F)C(O)(c3cncnc3)c3ccc(F)cc3F)nc2)cc1 (racemic) [Example 56] |  |
| > 4 | CC(C)C(O)(c1cncnc1)C(F)(F)c1ccc(OCc2ccc(C#N)cc2)cn1 (racemic) [Example 57] |  |
| 1.5 to 4 (≈ 3 to 7.99 µM) | O=[N+]([O-])c1ccc(COc2ccc(C(F)(F)C(O)(c3cncnc3)c3ccc(F)cc3F)nc2)cc1 (racemic) [Example 58] |  |
| 0.5 to 1.5 (≈ 1.02 to 3.06 µM) | OC(c1cncnc1)(c1ccc(F)cc1F)C(F)(F)c1ccc(OCc2cccc(Cl)c2)cn1 (racemic) [Example 59] |  |
| 0.5 to 1.5 (≈ 1.26 to 3.77 µM) | CC(C)C(O)(c1cncnc1)C(F)(F)c1ccc(C#Cc2ccc(F)cc2)cn1 (racemic) [Example 63] |  |
| 0.5 to 1.5 (≈ 1.06 to 3.17 µM) | N#Cc1cccc(C#Cc2ccc(C(F)(F)C(O)(c3ccc(Cl)cc3)c3cncnc3)nc2)c1 (racemic) [Example 66] |  |
| ≤ 0.5 | OC(c1cncnc1)(C(F)(F)F)C(F)(F)c1ccc(-c2ccc(Cl)cc2)cn1 (racemic) [Example 71, 1-(5-(4-Chlorophenyl)pyridin-2-yl)-1,1,3,3,3-pentafluoro-2-(pyrimidin-5-yl)propan-2-ol] |  |
| 1.5 to 4 (≈ 3.16 to 8.43 µM) | OC(c1ccc(Cl)cc1)(c1cncnc1)C(F)(F)c1ccc(Oc2cccc(Cl)c2)cn1 (stereo not drawn) [Example 61] |  |
